Test results as given in ChEMBL document CHEMBL1909046, “DrugMatrix in vitro pharmacology data”.

Columns and labels:
[1] = biological target: T1, Alpha-1D adrenergic receptor (Homo sapiens, UniProt P25100); assay type: cell membranes, HEK293, Membrane; further: in other assays of this panel Not Active means under 50% inhibition at 10 µM
T1 sequence (P25100 whole entry): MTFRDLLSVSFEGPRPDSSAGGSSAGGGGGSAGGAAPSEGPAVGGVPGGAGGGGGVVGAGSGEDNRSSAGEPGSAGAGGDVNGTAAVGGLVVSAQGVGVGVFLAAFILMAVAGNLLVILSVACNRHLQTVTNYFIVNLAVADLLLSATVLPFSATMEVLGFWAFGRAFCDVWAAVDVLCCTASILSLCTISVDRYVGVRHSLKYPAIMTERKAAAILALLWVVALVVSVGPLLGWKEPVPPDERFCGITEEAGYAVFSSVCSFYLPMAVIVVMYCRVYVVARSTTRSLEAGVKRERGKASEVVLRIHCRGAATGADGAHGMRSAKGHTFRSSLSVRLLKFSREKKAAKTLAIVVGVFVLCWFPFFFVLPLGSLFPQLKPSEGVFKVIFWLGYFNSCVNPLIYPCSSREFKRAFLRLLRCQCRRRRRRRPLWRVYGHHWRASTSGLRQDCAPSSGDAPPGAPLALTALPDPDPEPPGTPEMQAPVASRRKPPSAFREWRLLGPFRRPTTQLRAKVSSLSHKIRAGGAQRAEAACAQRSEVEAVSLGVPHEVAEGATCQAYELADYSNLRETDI

[2] = biological target: Beta-1 adrenergic receptor (Homo sapiens, UniProt P08588); assay: DRUGMATRIX: Adrenergic beta1 radioligand binding (ligand: [125I] Cyanopindolol); assay type: cell membranes, CHO-K1, Membrane; conditions: Not Active = under 50% inhibition at 10 µM
[3] = biological target: Beta-3 adrenergic receptor (Homo sapiens, UniProt P13945); assay: DRUGMATRIX: Adrenergic beta3 radioligand binding (ligand: [125I] Cyanopindolol); assay type: cell membranes, HEK293, Membrane; conditions: Not Active = under 50% inhibition at 10 µM
[4] = biological target: Aldo-keto reductase family 1 member B1 (Rattus norvegicus, UniProt P07943); assay type: tissue-based, Lens of camera-type eye;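 further: inhibition of aldose reductase enzyme activity, measured with DL-glyceraldehyde as the substrate; in other assays of this panel Not Active means under 50% inhibition at 10 µM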
[5] = biological target: 5-hydroxytryptamine receptor 4 (Cavia porcellus, UniProt O70528); assay type: cell membranes, Dunkin-Hartley, Striatum, Membrane; further: in other assays of this panel Not Active means under 50% inhibition at 10 µM
[6] = biological target: Sigma non-opioid intracellular receptor 1 (Homo sapiens, UniProt Q99720); assay: DRUGMATRIX: Sigma1 radioligand binding (ligand: [3H] Haloperidol); assay type: cell membranes, Jurkat, Membrane; conditions: jurkat; Not Active = under 50% inhibition at 10 µM
[7] = biological target: T2, Cholecystokinin receptor type A (Homo sapiens, UniProt P32238); assay type: cell membranes, Membrane; conditions: 1321-n1; further: in other assays of this panel Not Active means under 50% inhibition at 10 µM
T2 sequence (P32238 whole entry): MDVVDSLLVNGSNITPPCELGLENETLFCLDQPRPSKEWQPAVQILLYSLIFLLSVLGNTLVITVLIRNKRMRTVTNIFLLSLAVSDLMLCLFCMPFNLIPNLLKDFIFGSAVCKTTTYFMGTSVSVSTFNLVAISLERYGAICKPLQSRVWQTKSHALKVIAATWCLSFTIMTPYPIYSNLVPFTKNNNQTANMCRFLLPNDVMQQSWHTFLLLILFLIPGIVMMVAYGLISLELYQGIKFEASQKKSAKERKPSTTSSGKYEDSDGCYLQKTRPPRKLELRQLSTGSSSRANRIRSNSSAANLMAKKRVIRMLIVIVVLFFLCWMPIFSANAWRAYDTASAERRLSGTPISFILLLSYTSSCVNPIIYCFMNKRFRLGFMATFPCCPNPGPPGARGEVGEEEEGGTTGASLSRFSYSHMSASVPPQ

[8] = biological target: Insulin receptor (Rattus norvegicus, UniProt P15127); assay type: cell membranes, Wistar, Liver, Membrane; further: in other assays of this panel Not Active means under 50% inhibition at 10 µM
[9] = biological target: Melanocortin receptor 4 (Homo sapiens, UniProt P32245); assay type: cell membranes, Membrane; conditions: hek293; further: in other assays of this panel Not Active means under 50% inhibition at 10 µM
[10] = biological target: Kappa-type opioid receptor (Homo sapiens, UniProt P41145); assay: DRUGMATRIX: Opiate kappa (OP2, KOP) radioligand binding (ligand: [3H] Diprenorphine); assay type: cell membranes, HEK293, Membrane; conditions: Not Active = under 50% inhibition at 10 µM
[11] = biological target: T3, 5-hydroxytryptamine receptor 1A (Rattus norvegicus, UniProt P19327); assay type: cell membranes, CHO-K1, Membrane; further: in other assays of this panel Not Active means under 50% inhibition at 10 µM
T3 sequence (P19327 whole entry): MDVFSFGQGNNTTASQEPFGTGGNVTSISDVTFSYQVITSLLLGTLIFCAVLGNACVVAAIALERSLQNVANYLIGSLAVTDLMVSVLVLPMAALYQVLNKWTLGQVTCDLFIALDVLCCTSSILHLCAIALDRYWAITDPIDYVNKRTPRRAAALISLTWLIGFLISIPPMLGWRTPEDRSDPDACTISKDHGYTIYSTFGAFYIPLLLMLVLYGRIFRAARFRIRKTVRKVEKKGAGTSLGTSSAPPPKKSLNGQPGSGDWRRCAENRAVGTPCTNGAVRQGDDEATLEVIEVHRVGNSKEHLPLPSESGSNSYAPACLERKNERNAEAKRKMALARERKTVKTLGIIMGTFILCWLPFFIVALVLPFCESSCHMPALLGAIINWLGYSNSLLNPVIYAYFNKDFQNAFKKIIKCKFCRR

[12] = biological target: 5-hydroxytryptamine receptor 1B (Rattus norvegicus, UniProt P28564); assay type: cell membranes, Wistar, Cerebral cortex, Membrane; further: in other assays of this panel Not Active means under 50% inhibition at 10 µM
[13] = DRUGMATRIX: Calcium Channel Type L, Benzothiazepine radioligand binding (ligand: [3H] Diltiazem); assay type: cell membranes, Rattus norvegicus, Wistar, Brain, Membrane; conditions: Not Active = under 50% inhibition at 10 µM
[14] = DRUGMATRIX: Serotonin (5-Hydroxytryptamine) 5-HT3 radioligand binding (ligand: [3H] GR-65630); assay type: cell membranes, Membrane; conditions: hek293; Not Active = under 50% inhibition at 10 µM
[15] = DRUGMATRIX: Tumor Necrosis Factor (TNF), Non-Selective radioligand binding (ligand: [125I] TNF-alpha); assay type: cell membranes, Membrane; conditions: u-937; Not Active = under 50% inhibition at 10 µM
[16] = DRUGMATRIX: Calcium Channel Type L, Phenylalkylamine radioligand binding (ligand: [3H] (-)-Desmethoxyverapamil (D-888)); assay type: cell membranes, Rattus norvegicus, Wistar, Brain, Membrane; conditions: Not Active = under 50% inhibition at 10 µM
[17] = DRUGMATRIX: GABAA, Muscimol, Central radioligand binding (ligand: [3H] Muscimol); assay type: cell membranes, Rattus norvegicus, Wistar, Brain, Membrane; conditions: Not Active = under 50% inhibition at 10 µM
[18] = DRUGMATRIX: GABAA, Flunitrazepam, Central radioligand binding (ligand: [3H] Flunitrazepam); assay type: cell membranes, Rattus norvegicus, Wistar, Brain, Membrane; conditions: Not Active = under 50% inhibition at 10 µM
[19] = DRUGMATRIX: Imidazoline I2, Central radioligand binding (ligand: [3H] Idazoxan); assay type: cell membranes, Rattus norvegicus, Wistar, Cerebral cortex, Membrane; conditions: Not Active = under 50% inhibition at 10 µM

Chain of Beta-3 adrenergic receptor (P13945 whole entry): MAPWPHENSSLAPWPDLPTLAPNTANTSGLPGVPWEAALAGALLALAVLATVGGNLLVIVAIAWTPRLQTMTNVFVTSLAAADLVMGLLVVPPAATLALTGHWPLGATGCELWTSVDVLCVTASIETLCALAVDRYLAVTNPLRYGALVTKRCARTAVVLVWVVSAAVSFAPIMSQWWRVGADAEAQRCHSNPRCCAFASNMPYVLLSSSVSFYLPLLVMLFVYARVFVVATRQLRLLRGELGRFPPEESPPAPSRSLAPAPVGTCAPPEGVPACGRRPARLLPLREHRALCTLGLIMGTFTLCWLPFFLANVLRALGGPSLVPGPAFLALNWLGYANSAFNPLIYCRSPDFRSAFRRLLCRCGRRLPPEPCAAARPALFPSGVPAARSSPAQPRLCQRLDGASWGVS
Chain of Kappa-type opioid receptor (P41145 whole entry): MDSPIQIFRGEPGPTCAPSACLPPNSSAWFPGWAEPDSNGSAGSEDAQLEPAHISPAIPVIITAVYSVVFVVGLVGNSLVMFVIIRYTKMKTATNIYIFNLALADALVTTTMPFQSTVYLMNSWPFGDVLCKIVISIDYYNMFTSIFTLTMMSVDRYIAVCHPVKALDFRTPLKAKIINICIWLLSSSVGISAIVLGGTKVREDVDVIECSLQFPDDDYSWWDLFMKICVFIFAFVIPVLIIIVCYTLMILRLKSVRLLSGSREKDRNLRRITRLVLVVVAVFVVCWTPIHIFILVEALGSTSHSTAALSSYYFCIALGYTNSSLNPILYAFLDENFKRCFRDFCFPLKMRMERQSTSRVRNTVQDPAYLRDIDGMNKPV
Chain of Melanocortin receptor 4 (P32245 whole entry): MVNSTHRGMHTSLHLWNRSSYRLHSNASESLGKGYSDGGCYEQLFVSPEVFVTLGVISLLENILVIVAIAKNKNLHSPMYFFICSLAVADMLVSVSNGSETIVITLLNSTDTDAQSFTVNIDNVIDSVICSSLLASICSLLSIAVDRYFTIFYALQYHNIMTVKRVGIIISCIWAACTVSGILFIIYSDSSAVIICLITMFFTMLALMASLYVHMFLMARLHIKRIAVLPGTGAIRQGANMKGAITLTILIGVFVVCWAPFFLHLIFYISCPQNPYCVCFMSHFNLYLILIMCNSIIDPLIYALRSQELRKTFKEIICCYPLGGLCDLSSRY
Chain of Beta-1 adrenergic receptor (P08588 whole entry): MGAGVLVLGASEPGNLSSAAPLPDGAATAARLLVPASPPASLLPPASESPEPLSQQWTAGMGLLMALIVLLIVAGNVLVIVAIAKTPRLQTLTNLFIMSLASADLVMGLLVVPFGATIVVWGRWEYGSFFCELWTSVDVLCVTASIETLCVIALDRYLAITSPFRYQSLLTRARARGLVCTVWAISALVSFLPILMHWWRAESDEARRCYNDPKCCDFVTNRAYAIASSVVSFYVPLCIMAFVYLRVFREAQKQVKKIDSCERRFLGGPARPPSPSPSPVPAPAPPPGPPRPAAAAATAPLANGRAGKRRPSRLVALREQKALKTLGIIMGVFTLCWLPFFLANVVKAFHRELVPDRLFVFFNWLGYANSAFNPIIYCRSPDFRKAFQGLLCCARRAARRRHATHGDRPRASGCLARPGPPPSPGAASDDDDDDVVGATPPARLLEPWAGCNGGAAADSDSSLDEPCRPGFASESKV
Chain of 5-hydroxytryptamine receptor 1B (P28564 whole entry): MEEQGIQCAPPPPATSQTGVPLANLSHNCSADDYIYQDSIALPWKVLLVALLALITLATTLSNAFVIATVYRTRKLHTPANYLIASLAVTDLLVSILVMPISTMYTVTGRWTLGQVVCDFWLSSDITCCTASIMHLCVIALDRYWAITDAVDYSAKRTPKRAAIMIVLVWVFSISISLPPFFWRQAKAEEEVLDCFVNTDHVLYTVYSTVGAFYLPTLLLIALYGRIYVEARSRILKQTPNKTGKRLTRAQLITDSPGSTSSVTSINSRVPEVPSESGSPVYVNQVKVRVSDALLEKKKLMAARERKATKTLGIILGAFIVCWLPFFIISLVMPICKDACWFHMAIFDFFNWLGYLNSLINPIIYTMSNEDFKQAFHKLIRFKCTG
Chain of Sigma non-opioid intracellular receptor 1 (Q99720 whole entry): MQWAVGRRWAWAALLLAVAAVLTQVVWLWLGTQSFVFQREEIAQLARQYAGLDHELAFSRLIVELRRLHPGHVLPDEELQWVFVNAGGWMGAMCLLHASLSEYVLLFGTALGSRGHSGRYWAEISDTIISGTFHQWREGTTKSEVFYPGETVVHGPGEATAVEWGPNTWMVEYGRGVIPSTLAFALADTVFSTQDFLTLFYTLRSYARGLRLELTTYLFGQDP
Chain of 5-hydroxytryptamine receptor 4 (O70528 whole entry): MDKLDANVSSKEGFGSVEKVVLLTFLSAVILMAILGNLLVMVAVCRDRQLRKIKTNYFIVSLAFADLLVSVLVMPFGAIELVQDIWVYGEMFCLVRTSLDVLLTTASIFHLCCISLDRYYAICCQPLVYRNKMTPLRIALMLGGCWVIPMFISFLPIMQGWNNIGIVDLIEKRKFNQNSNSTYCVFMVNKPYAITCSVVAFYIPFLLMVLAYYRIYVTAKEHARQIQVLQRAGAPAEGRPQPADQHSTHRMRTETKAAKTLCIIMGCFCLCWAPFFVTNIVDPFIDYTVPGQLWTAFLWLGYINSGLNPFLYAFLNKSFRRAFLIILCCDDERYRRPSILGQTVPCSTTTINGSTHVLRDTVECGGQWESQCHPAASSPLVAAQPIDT
Chain of Insulin receptor (P15127 27-759 limits assumed): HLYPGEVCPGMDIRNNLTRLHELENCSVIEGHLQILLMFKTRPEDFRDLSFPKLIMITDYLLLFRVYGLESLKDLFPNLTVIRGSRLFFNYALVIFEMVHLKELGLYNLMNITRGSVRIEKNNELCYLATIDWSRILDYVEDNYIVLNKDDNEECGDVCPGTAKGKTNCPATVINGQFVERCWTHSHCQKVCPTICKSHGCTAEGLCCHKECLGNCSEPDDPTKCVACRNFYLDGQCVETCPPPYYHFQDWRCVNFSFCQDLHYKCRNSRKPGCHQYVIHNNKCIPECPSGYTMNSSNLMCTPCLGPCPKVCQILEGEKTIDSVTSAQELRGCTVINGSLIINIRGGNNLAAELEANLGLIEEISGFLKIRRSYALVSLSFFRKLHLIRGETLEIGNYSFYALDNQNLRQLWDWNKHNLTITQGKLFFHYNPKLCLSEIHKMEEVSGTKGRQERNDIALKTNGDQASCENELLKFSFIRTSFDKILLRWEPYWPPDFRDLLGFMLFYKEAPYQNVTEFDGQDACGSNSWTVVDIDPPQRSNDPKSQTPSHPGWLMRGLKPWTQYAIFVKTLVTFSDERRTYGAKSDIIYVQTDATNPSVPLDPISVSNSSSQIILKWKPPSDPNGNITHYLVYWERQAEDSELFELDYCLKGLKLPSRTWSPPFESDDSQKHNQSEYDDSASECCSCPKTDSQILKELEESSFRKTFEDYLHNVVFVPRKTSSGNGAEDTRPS
Chain of Insulin receptor (P15127 764-1383 limits assumed): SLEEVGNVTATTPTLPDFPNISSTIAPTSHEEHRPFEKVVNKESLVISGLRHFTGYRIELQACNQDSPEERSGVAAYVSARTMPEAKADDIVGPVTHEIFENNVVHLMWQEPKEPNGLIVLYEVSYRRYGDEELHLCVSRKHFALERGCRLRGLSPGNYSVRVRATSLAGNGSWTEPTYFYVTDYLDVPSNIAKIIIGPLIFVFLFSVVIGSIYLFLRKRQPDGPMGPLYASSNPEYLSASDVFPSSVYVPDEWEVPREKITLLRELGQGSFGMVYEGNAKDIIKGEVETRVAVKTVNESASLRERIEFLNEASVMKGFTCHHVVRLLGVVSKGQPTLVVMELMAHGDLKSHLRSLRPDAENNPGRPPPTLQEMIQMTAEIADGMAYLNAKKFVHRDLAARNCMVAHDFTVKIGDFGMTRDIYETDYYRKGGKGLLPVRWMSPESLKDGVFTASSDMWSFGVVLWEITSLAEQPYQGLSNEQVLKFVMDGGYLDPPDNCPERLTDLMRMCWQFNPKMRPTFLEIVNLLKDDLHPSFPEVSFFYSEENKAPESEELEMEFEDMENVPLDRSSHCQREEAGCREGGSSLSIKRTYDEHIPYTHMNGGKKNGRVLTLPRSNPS

Question: Which results are given for Clc1ccccc1C(c1ccccc1)(c1ccccc1)n1ccnc1 [CLOTRIMAZOLE]?
Answer: IC50 ([1]; read-out: IC50): 15 µM; Ki ([1]; read-out: Ki): 7.38 µM; IC50 ([2]; read-out: IC50): 11.3 µM; Ki ([2]; read-out: Ki): 6.51 µM; IC50 ([3]; read-out: IC50): 7.21 µM; Ki ([3]; read-out: Ki): 5.41 µM; IC50 [4]: Not Active; IC50 [5]: Not Active; IC50 [6]: Not Active; IC50 [7]: Not Active; IC50 [8]: Not Active; IC50 [9]: Not Active; Ki [10]: 2.52 µM; IC50 ([10]; read-out: IC50): 6.3 µM; IC50 ([11]; read-out: IC50): 17.7 µM; Ki ([11]; read-out: Ki): 10.1 µM; IC50 ([12]; read-out: IC50): 27.3 µM; Ki ([12]; read-out: Ki): 12.4 µM

Question: With COc1ccc(CCN2CCC(Nc3nc4ccccc4n3Cc3ccc(F)cc3)CC2)cc1 [ASTEMIZOLE] as the compound, how does the IC50 ([1]; read-out: IC50) read?
Answer: Its IC50 is 0.769 µM.

Question: What about the Ki ([1]; read-out: Ki) of the same compound?
Answer: The Ki was 0.378 µM.

Question: And the IC50 [4]?
Answer: The IC50 was “Not Active”.

Question: And the IC50 [5]?
Answer: Its IC50 is “Not Active”.

Question: What about the IC50 [7] of the same compound?
Answer: Its IC50 is “Not Active”.

Question: And the IC50 [8]?
Answer: Its IC50 is “Not Active”.

Question: And the IC50 ([11]; read-out: IC50)?
Answer: The IC50 was 0.767 µM.

Question: What about the Ki ([11]; read-out: Ki) of the same compound?
Answer: Its Ki is 0.438 µM.

Question: And the IC50 ([12]; read-out: IC50)?
Answer: The IC50 was 1.39 µM.

Question: And the Ki ([12]; read-out: Ki)?
Answer: The Ki was 0.63 µM.

Question: With O=[N+]([O-])c1cc([As](=O)(O)O)ccc1O [ROXARSONE] as the compound, how does the IC50 ([1]; hek293) read?
Answer: The IC50 was “Not Active”.

Question: What about the Ki ([1]; hek293) of the same compound?
Answer: The Ki was “Not Active”.

Question: What about the IC50 ([2]; cho-k1) of the same compound?
Answer: The IC50 was “Not Active”.

Question: And the Ki ([2]; cho-k1)?
Answer: The Ki was “Not Active”.

Question: What about the IC50 ([3]; hek293) of the same compound?
Answer: The IC50 was “Not Active”.

Question: What about the Ki ([3]; hek293) of the same compound?
Answer: The Ki was “Not Active”.

Question: And the IC50 [4]?
Answer: The IC50 was “Not Active”.

Question: And the Ki [4]?
Answer: Its Ki is “Not Active”.

Question: And the IC50 [13]?
Answer: The IC50 was “Not Active”.

Question: What about the Ki [13] of the same compound?
Answer: The Ki was “Not Active”.

Question: What about the IC50 [14] of the same compound?
Answer: Its IC50 is “Not Active”.

Question: What about the Ki [14] of the same compound?
Answer: Its Ki is “Not Active”.

Question: And the IC50 [5]?
Answer: The IC50 was “Not Active”.

Question: And the Ki [5]?
Answer: The Ki was “Not Active”.

Question: And the IC50 [6]?
Answer: Its IC50 is “Not Active”.

Question: And the Ki [6]?
Answer: The Ki was “Not Active”.

Question: And the IC50 [15]?
Answer: The IC50 was “Not Active”.

Question: What about the Ki [15] of the same compound?
Answer: The Ki was “Not Active”.

Question: What about the IC50 [16] of the same compound?
Answer: The IC50 was “Not Active”.

Question: What about the Ki [16] of the same compound?
Answer: The Ki was “Not Active”.

Question: And the IC50 [7]?
Answer: The IC50 was “Not Active”.

Question: And the Ki [7]?
Answer: Its Ki is “Not Active”.

Question: What about the IC50 [17] of the same compound?
Answer: The IC50 was “Not Active”.

Question: And the Ki [17]?
Answer: The Ki was “Not Active”.

Question: And the IC50 [18]?
Answer: Its IC50 is “Not Active”.

Question: What about the Ki [18] of the same compound?
Answer: The Ki was “Not Active”.

Question: And the IC50 [19]?
Answer: The IC50 was “Not Active”.

Question: And the Ki [19]?
Answer: Its Ki is “Not Active”.

Question: What about the IC50 [8] of the same compound?
Answer: Its IC50 is “Not Active”.

Question: And the Ki [8]?
Answer: The Ki was “Not Active”.

Question: And the IC50 [9]?
Answer: Its IC50 is “Not Active”.

Question: What about the Ki [9] of the same compound?
Answer: Its Ki is “Not Active”.

Question: What about the IC50 ([11]; cho-k1) of the same compound?
Answer: The IC50 was “Not Active”.

Question: And the Ki ([11]; cho-k1)?
Answer: Its Ki is “Not Active”.

Question: What about the IC50 [12] of the same compound?
Answer: The IC50 was “Not Active”.

Question: What about the Ki [12] of the same compound?
Answer: Its Ki is “Not Active”.

Question: Which IC50 ([2]; cho-k1) does the source give for O=C(CCCN1CCC(O)(c2ccc(Cl)cc2)CC1)c1ccc(F)cc1 [HALOPERIDOL] here?
Answer: The IC50 was “Not Active”.

Question: And the IC50 ([3]; hek293)?
Answer: Its IC50 is “Not Active”.

Question: And the IC50 [4]?
Answer: The IC50 was “Not Active”.

Question: And the IC50 [5]?
Answer: The IC50 was “Not Active”.

Question: What about the IC50 [7] of the same compound?
Answer: Its IC50 is “Not Active”.

Question: And the IC50 [8]?
Answer: Its IC50 is “Not Active”.

Question: What about the IC50 [9] of the same compound?
Answer: Its IC50 is “Not Active”.

Question: And the IC50 ([10]; hek293)?
Answer: The IC50 was “Not Active”.

Question: What about the IC50 ([11]; cho-k1) of the same compound?
Answer: The IC50 was “Not Active”.

Question: And the IC50 [12]?
Answer: Its IC50 is “Not Active”.
